One data set deals with myofibroblast formation. The following applies: Ajmal et al. (2003); cited from earlier work.
Data set [1] is described as follows: Stability of rifampin and minocycline in PBS with and without tranexamic acid. In kind it is physicochemical. The protocol: To determine the stability of active pharmaceutical ingredients, such as, for example, one or more of active pharmaceutical ingredients 26 when combined with a hemostatic agent, such as, for example, one or more of hemostatic agents 24, mixtures of rifampin and minocycline were prepared in phosphate-buffered saline (PBS) with and without tranexamic acid (TXA). The mixtures were tested both at room temperature (RT) (about 23° C.) and at 37° C.

A short description of data set [2]: In vitro elution of rifampin and minocycline from p22-27.5 polymers with TXA in the release media. The note with it: PBS pH 7.4 without TXA, with TXA 0.05 mg/mL or 5 mg/mL, over 25 hours. In kind it is physicochemical. The source says:
To determine the elution of active pharmaceutical ingredients, such as, for example, one or more of active pharmaceutical ingredients 26 from a polymer, such as, for example, one of the polymers discussed herein, in vitro when the active pharmaceutical ingredients are combined with a hemostatic agent, such as, for example, one or more of hemostatic agents 24, in vitro elution of rifampin and minocycline from polymers in the p22-27.5 family containing different amounts of tranexamic acid was evaluated in a PBS buffer over 25 hours. B1=PBS pH 7.4; B2=PBS, pH 7.4+TXA (0.05 mg/mL); B3=PBS, pH 7.4+TXA (5 mg/mL).

Another data set relates to blood clotting. Briefly: Time required to induce blood clotting in vitro. In kind it is biochemical. The protocol:
Tests were conducted to compare the time required to induce blood clotting in vitro when different amounts of hemostatic agent is administered in the presence of TYRX (degradable mesh coated with P22-27.5 containing rifampin and minocycline), as shown in FIG. 23.
Tests were conducted to compare the time required for different hemostatic agents to induce blood clotting in vitro versus the time required to induce blood clotting in vitro when no hemostatic agent is administered. In particular, the time required to induce blood clotting was plotted for blood alone, TYRX, Surgicel, TYRX with 1.6 mg of TXA, 1.2 mg of TXA alone and TYRX with 200 mg of TXA. In this example, TYRX refers to a Glycoprene mesh that is coated with P22-27.5 (a polymer in the P22-X family) containing Rifampin and Minocycline.

Structures are written as SMILES.

With `O=S(=O)([O-])CCS.[Na+]` [MESNA, sodium 2-mercaptoethane sulfonate], in the data set with myofibroblast formation, the myofibroblast formation result was “diminish myofibroblast formation”.
For the molecule `CO[C@H]1/C=C/O[C@@]2(C)Oc3c(C)c(O)c4c(O)c(c(/C=N/N5CCN(C)CC5)c(O)c4c3C2=O)NC(=O)/C(C)=C\C=C\[C@H](C)[C@H](O)[C@@H](C)[C@@H](O)[C@@H](C)[C@H](OC(C)=O)[C@@H]1C` [rifampin], in data set [1] (RT (about 23° C.) and 37° C., regardless of the temperature), the “percentage area of rifampin, mixtures with versus without tranexamic acid” value is “substantially the same”. Also, the “elution rate from p22-27.5 polymer” value in data set [2] is recorded as “not affected by the presence of TXA”.
Consider `NC[C@H]1CC[C@H](C(=O)O)CC1` [tranexamic acid], for which, in data set [1] (RT and 37° C.), the “effect on the stability of rifampin and minocycline” value is “does not negatively affect the stability of rifampin and minocycline”. Moreover, the Clotting time result with blood clotting (higher amounts of TXA (1.6 mg TXA vs 200 mg of TXA) in the presence of TYRX) is “increased”. Further, the “time required to induce blood clotting” value in the data set with blood clotting (in vitro, 1.2 mg of TXA alone) is on record as “about 19 minutes”.

The record behind these values is patent US10939901B2, “Customizable anchorage devices and methods of use” (TYRX, Inc., priority 2016, dated 2021).
